This passage reports IC50 results from BindingDB's records for doi:10.1111/cbdd.12280 (Universiti Kebangsaan Malaysia, Jalan Raja Muda Abdul Aziz, …, 2014).

pIC50: −log10 of the molar value.

The pIC50 is the negative decadic logarithm of the IC50, by convention in mol/L. Higher therefore signals a low IC50.

One experiment concerns the target T1, Phospholipase A2 group V (Homo sapiens, UniProt P39877).
T1 sequence (P39877 whole entry): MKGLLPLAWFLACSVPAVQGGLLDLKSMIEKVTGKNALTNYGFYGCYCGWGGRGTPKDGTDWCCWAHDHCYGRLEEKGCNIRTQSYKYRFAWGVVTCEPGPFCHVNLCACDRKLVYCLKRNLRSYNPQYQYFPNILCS
The experiment is described as follows: sPLA2-V activity assay. The note with it: pH 8; 25 °C. On the procedure:
Substrate 1,2-bis(heptanoylthio)-glycerophosphocholine and human recombinant PLA2-V were resuspended in assay buffer, and DTNB was dissolved in an aqueous solution of Tris-HCl (pH 8).

The target of experiment [1] is T2, Prostaglandin G/H synthase 1 (Ovis aries, UniProt P05979).
T2 sequence (P05979 whole entry): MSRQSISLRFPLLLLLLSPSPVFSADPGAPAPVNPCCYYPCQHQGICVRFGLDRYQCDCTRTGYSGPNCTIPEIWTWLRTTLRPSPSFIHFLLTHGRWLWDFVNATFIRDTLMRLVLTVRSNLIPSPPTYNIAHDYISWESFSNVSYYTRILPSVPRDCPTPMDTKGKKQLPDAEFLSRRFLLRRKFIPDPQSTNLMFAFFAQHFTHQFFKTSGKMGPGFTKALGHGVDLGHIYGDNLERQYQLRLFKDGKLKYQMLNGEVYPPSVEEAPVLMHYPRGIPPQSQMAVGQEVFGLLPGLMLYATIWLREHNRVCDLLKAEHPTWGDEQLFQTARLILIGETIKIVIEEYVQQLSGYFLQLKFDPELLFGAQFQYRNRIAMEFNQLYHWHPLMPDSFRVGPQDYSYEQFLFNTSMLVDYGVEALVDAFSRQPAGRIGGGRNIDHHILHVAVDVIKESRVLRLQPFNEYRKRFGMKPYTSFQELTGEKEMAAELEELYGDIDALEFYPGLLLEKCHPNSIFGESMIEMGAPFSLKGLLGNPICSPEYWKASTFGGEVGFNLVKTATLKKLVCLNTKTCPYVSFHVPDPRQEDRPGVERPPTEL
The experiment is described as follows: Cyclooxygenase activity assay. The note with it: pH 8; 37 °C. On the procedure: (§1) Reaction mixture containing 100 mM Tris-HCl buffer (pH 8) and COX-1 (ovine) or COX-2 (human recombinant) was preincubated for 10 min in a water bath at 37 °C. The reaction was initiated by the addition of 10 µL arachidonic acid (final concentration 100 µM). After 2 min, the reaction was terminated by adding 1 M HCl. Test compounds were dissolved in DMSO and diluted to the desired concentration with potassium phosphate buffer of pH 7.4.

For a further experiment, the target named is T3, Prostaglandin E synthase (Homo sapiens, UniProt O14684).
T3 sequence (O14684 whole entry): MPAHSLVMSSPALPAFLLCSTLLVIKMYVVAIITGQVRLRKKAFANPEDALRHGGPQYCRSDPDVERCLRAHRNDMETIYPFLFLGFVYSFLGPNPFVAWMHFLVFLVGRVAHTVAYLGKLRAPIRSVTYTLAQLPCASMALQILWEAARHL
The experiment is described as follows: Microsomal prostaglandin E synthase-1 activity assay. The note with it: pH 7; 20 °C. Here is the method:
The assay buffer contained 100 mM KHPO4 (pH 7.0), 2 mM EDTA and 2.5 mM reduced GSH. 100 µL of reaction buffer containing human recombinant mPGES-1 was added to 96-well non-binding plate, followed by the addition of test samples to their respective wells. The reaction mixture was incubated for 30 min at 20 °C. […] The reaction was quenched by adding 20 µL of SnCl2 solution in 1 N HCl.

For another experiment, the target named is T4, Lipoxygenase (Glycine max, UniProt Q43440).
T4 sequence (Q43440 whole entry): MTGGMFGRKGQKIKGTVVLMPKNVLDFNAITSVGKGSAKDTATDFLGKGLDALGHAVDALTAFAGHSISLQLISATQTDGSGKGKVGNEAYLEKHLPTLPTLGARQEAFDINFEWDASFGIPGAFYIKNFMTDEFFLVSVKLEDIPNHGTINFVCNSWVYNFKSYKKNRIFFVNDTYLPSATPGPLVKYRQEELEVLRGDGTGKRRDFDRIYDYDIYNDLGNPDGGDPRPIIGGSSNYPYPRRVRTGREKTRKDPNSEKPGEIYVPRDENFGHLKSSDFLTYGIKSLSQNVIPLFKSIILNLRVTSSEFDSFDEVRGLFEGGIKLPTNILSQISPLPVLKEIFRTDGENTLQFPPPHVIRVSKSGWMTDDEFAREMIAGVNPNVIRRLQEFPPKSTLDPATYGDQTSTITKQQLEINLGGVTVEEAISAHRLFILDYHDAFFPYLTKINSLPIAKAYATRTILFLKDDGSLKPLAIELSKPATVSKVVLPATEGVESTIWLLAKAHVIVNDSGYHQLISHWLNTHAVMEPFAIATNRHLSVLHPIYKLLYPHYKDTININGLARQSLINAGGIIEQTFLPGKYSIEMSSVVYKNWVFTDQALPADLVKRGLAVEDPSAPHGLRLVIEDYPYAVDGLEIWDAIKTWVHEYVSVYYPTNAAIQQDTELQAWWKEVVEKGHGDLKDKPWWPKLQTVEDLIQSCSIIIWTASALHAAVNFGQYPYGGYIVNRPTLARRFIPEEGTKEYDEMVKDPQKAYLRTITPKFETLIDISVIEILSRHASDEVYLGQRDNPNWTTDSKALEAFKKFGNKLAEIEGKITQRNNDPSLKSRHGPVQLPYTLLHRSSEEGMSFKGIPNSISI
The experiment is described as follows: Lipo-oxygenase activity assay. The note with it: pH 7; 25 °C. On the procedure: The assay was progressed in 96-well microliter plates containing substrate, soybean LOX enzyme, and respective test substance at room temperature in a 0.1 M Tris-HCl buffer solution at pH 7. The reaction was initiated by the addition of substrate solution to all wells and incubated for 5 min, followed by the addition of 100 µL of chromogen solution to all wells to stop enzyme catalysis and incubated for 5 min. The absorbance was measured at 490 nm. Dimethyl sulphoxide served as a negative control.

Experiment [2] has as its target T5, Prostaglandin G/H synthase 2 (Homo sapiens, UniProt P35354).
T5 sequence (P35354 whole entry): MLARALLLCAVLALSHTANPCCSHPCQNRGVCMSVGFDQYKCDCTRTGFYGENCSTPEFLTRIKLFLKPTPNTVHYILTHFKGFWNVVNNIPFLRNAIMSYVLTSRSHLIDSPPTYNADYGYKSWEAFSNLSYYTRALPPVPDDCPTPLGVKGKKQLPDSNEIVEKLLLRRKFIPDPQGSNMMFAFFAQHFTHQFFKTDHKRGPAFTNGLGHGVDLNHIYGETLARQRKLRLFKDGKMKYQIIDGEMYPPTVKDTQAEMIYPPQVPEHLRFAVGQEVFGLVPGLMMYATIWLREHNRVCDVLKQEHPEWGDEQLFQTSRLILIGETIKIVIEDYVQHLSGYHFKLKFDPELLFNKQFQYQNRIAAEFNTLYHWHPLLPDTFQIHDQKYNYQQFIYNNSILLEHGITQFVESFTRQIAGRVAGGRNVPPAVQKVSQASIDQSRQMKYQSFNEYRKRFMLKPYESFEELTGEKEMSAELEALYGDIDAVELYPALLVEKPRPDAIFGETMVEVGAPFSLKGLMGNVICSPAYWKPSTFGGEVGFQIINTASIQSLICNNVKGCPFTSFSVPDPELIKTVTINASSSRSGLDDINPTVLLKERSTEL
The experiment is described as follows: Cyclooxygenase activity assay. The conditions noted are these: pH 8; 37 °C. Here is the method: as §1

On to `CC(C)(C)c1ccc(/C=C/C(=O)/C=C/c2ccc(C(C)(C)C)cc2)cc1`, for which the pIC50 against Phospholipase A2 group V was 4.29; in experiment [1], 4.27; against Prostaglandin E synthase it was 4.43.

In the case of `CCN(CC)c1ccc(/C=C2\CC/C(=C\c3ccc(N(CC)CC)cc3)C2=O)cc1` [2,5-Bis(4-diethylaminobenzylidene)cyclopentanone (17)], the negative-log IC50 (pIC50) against Phospholipase A2 group V was 4.99; against Lipoxygenase it was 4.25; in experiment [1], 4.50; against Prostaglandin E synthase, 5.26.

For `COc1cccc(/C=C2\CCC/C(=C\c3cccc(OC)c3OC)C2=O)c1OC` [2,6-Bis(2,3-dimethoxybenzylidene)cyclohexanone (3)], the negative-log IC50 (pIC50) is 4.96 at Phospholipase A2 group V; 4.32 against Lipoxygenase; 4.48 in experiment [1]; 4.27 in experiment [2]; 5.13 against Prostaglandin E synthase.

With `CCN(CC)c1ccc(/C=C2\CCC/C(=C\c3ccc(N(CC)CC)cc3)C2=O)cc1` [2,6-Bis(4-diethyl-aminobenzylidene)cyclohexanone (5)], the negative logarithm of the IC50 (pIC50) at Phospholipase A2 group V was 4.92; in experiment [1] it was 4.41; against Prostaglandin E synthase, 5.62.

On to `CCN(CC)c1ccc(/C=C/C(=O)/C=C/c2ccc(N(CC)CC)cc2)cc1` [(1E,4E)‐1,5‐bis[4‐(diethylamino)phenyl]penta‐1,4‐ dien‐3‐one (11)], for which the pIC50 on Phospholipase A2 group V is 4.79; on Lipoxygenase it was 4.02; in experiment [1] it was 4.42; in experiment [2], 4.02; at Prostaglandin E synthase, 5.16.

Take `COc1cc(C=CC(=O)CC(=O)C=Cc2ccc(O)c(OC)c2)ccc1O` [(1E,6E)-1,7-bis(4-hydroxy-3-methoxyphenyl)hepta-1,6-diene-3,5-dione]: the pIC50 against Lipoxygenase is 4.24; in experiment [1], 4.50; against Prostaglandin E synthase, 5.31.

Regarding `COc1cccc(/C=C/C(=O)/C=C/c2cccc(OC)c2OC)c1OC` [(1Z,4Z)–1-5-Bis[2,3(dimethoxy)phenyl]-1,4-pentadien-3-one (9)], the pIC50 at Phospholipase A2 group V is 4.98; on Lipoxygenase, 4.20; in experiment [1] it was 4.38; in experiment [2] it was 4.15; against Prostaglandin E synthase it was 4.83.

`CC(C=C1CCC(=CC(C)c2ccccc2)C1=O)c1ccccc1` (stereo not drawn) [(2E,5E)‐2,5‐bis(2‐phenylpropylidene)cyclopentan‐1‐ one (16)]: the figures for the pIC50 (in experiment [1]; at Prostaglandin E synthase) were 3.50 and 5.13, respectively.

Turning to `COc1cccc(/C=C2\CC/C(=C\c3cccc(OC)c3OC)C2=O)c1OC` [(2E,5E)‐2,5‐bis[(2,3‐ dimethoxyphenyl)methylidene]cyclopentan‐1‐one (15)], the pIC50 against Phospholipase A2 group V is 4.78; on Lipoxygenase, 4.20; in experiment [1], 4.40; against Prostaglandin E synthase, 4.98.

As for `CC(C)(C)c1ccc(/C=C2\CC/C(=C\c3ccc(C(C)(C)C)cc3)C2=O)cc1` [(2E,5E)‐2,5‐bis[(4‐tert‐butyl‐2‐ methylphenyl)methylidene]cyclopentan‐1‐one (14)], the pIC50 on Phospholipase A2 group V was 4.08; in experiment [1] it was 4.22; against Prostaglandin E synthase, 4.61.

Consider `CC(C=C1CCCC(=CC(C)c2ccccc2)C1=O)c1ccccc1` (stereo not drawn) [(2E,6E)‐2,6‐bis(2‐phenylpropylidene)cyclohexan‐1‐ one (4)], for which the negative-log IC50 (pIC50) is 4.02 against Phospholipase A2 group V, 3.71 in experiment [1] and 4.69 against Prostaglandin E synthase.

In the case of `CC(C)(C)c1ccc(/C=C2\CCC/C(=C\c3ccc(C(C)(C)C)cc3)C2=O)cc1` [(2E,6E)‐2,6‐bis[(4‐tert‐ butylphenyl)methylidene]cyclohexan‐1‐one (2)], the pIC50 was 4.27 on Phospholipase A2 group V, 4.36 in experiment [1] and 5.05 against Prostaglandin E synthase.

Consider `CC(C=CC(=O)C=CC(C)c1ccccc1)c1ccccc1` (stereo not drawn) [(3E,6E)‐2,8‐diphenylnona‐3,6‐dien‐5‐one (10)], for which the negative-log IC50 (pIC50) against Phospholipase A2 group V is 3.90; in experiment [1] it was 3.71; against Prostaglandin E synthase it was 4.22.

As to `CC(Cc1ccc(O)c(O)c1)C(C)Cc1ccc(O)c(O)c1` (stereo not drawn) [LOX inhibitor, N/A], the pIC50 against Lipoxygenase was 5.03.

On Phospholipase A2 group V, `C[C@@H]1C[C@H]2[C@@H]3CCC4=CC(=O)C=C[C@]4(C)[C@@]3(F)[C@@H](O)C[C@]2(C)[C@@]1(O)C(=O)CO` [dexamethasone (tetramethyl-rhodamine conjugated )] showed a negative-log IC50 (pIC50) of 6.21.
